In patent US20160108049A1 (TAKEDA Gmbh, priority 2011, published 2016):

Columns and labels:
[1] = biological target: T1, PDE4B1 (Homo sapiens, UniProt Q07343); test: Inhibition of PDE4 activity (PDE4B1, SPA assay); type: biochemical; conditions: recombinant PDE4B1, 0.5 μM cAMP; read-out: PDE4B1 Inhibitory values measured as -logIC50 (converted)
T1 construct: made in house; host or cells: SF21 insect cells (baculovirus; virus made in SF9 cells, pCR-Bac vector)
Description: Method for Measuring Inhibition of PDE4 Activity
The PDE4B1 (GB no. L20966) was a gift of Prof. M. Conti (Stanford University, USA). It was amplified from the original plasmid (pCMV5) via PCR with primers Rb18 (5′-[…]-3′) and Rb10 (5′-[…]-3′) and cloned into the pCR-Bac vector (Invitrogen, Groningen, NL).
The recombinant baculovirus was prepared by means of homologous recombination in SF9 insect cells. The expression plasmids were cotransfected with Baculo-Gold DNA (Pharmingen, Hamburg) using a standard protocol (Pharmingen, Hamburg). Wt virus-free recombinant virus supernatants were selected using plaque assay methods. After that, high-titre virus supernatants were prepared by amplifying 3 times. PDE4B1 was expressed in SF21 cells by infecting 2×10^6 cells/ml with an MOI (multiplicity of infection) between 1 and 10 in the serum-free SF900 medium (GIBCO Life Technologies, Karlsruhe, Germany) The cells were cultured at 28° C. for 48-72 hours, after which they were pelleted for 5-10 min at 1000×g and 4° C.
The SF21 insect cells were resuspended, at a concentration of approx. 10^7 cells/ml, in ice-cold (4° C.) homogenization buffer (20 mM Tris, pH 8.2, containing the following additions: 140 mM NaCl, 3.8 mM KCl, 1 mM EGTA, 1 mM MgCl2, 10 mM β-mercaptoethanol, 2 mM benzamidine, 0.4 mM Pefablock, 10 μM leupeptin, 10 μM pepstatin A, 5 μM trypsin inhibitor) and disrupted by ultrasonication. The homogenate was then centrifuged for 10 min at 1000×g and the supernatant was stored at −80° C. until subsequent use (see below). The protein content was determined by the Bradford method (BioRad, Munich) using BSA (Bovine serum albumin) as the standard.
PDE4B1 activities were measured in a 96-well platform using SPA (scintillation proximity assay) yttrium silicate beads (RPNQ1050 from GE Healthcare). In a first step the PDE activity operated hydrolysis of either [^3H] cAMP (substrate) into […]. In a second step substrate and product were distinguished following addition of SPA yttrium silicate beads. […] Close proximity of bound [^3H] […] The test volume was 100 μl and finally contained 20 mM Tris buffer (pH 7.4), 0.1 mg/ml of BSA, 5 mM Mg^2+, 0.5 μM cAMP (including about 50,000 cpm of [3H]cAMP) as substrate, 1 μl of the respective substance dilution in DMSO and sufficient recombinant PDE (1000×g supernatant, see above) to ensure that 10-20% of the cAMP was converted under the said experimental conditions. […] After a preincubation of 5 min at 37° C., the reaction was commenced by adding the substrate (cAMP) and the assays were incubated for a further 15 min. Reactions were terminated by adding SPA beads (50 μl). In agreement with the manufacturer's instructions, the SPA beads had previously been resuspended in water, but were then diluted 1:3 (v/v) in water. This diluted solution further contained 3 mM IBMX (isobutylmethylxanthine) to ensure a complete block of PDE activity. Once the beads were sedimented (>30 min), the MTP's (micro titerplate) were analyzed in commercially available […]. The corresponding IC50 values of the compounds for inhibition of PDE4B1 activity were determined from the concentration-effect curves by means of non-linear regression.
(§1) The numbers of the compounds correspond to the numbers of the examples.

[2] = biological target: T2, human PDE5 (Homo sapiens, UniProt O76074); test: Inhibition of PDE5 activity (platelet lysate, SPA assay); type: biochemical; conditions: 0.5 μM cGMP, read-out: PDE5 Inhibitory values measured as -logIC50 (converted)
T2 construct: from tissue; host or cells: human platelets from fresh donor blood (platelet lysate)
Description: Method for Measuring Inhibition of PDE5 Activity
As a source for human PDE5, platelets were used. For that purpose, 150 ml fresh blood from human donors anticoagulated with citrate [final concentration 0.3% (w/v)] was centrifuged at 200 g for 10 min to obtain the so-called platelet-rich-plasma (PRP) as a supernatant. […] After centrifugation (1,400 g, 10 min) the cell pellet was resuspended in 3 ml homogenization buffer (NaCl 140 mM, KCl 3.8 mM, EGTA (ethylene glycol tetraacetic acid) 1 mM, MgCl2 1 mM, Tris-HCl 20 mM, beta-mercaptoethanol 1 mM, pH 8.2) plus protease-inhibitor mix resulting in final concentrations of 0.5 mM Pefablock (Roche), 10 μM Leupeptin, 5 μM Trypsine inhibitor, 2 mM Benzamidin and 10 μM Pepstatin A. The suspension was sonicated and thereafter centrifuged for 15 min at 10,000 g. The resulting supernatant (platelet lysate) was used for enzymatic assays.
PDE5 activities were measured in a 96-well platform using SPA (scintillation proximity assay) yttrium silicate beads (RPNQ1050 from GE Healthcare). In a first step the PDE activity operated hydrolysis of either [^3H] cGMP (substrate) into [^3H] 5′GMP. In a second step substrate and product were distinguished following addition of SPA yttrium silicate beads. Indeed, in the presence of zinc sulphate the linear [^3H] […] Close proximity of bound [^3H] […] The test volume was 100 μl and contained 20 mM Tris buffer (pH 7.4), 0.1 mg of BSA (bovine serum albumin)/ml, 5 mM Mg^2+, 1 μM motapizone (PDE3 Inhibitor), 10 nM PDE2 inhibitor 2-(3,4-dimethoxybenzyl)-7-[(1R,2R)-2-hydroxy-1-(2-phenylethyl)propyl]-5-methylimidazo[5,1-f][1,2,4]triazin-4(3H)-one, 0.5 μM cGMP (cyclic guanosine monophosphate) (including about 50,000 cpm of [3H]cGMP as a tracer) (substrate), 1 μl of the respective compound dilution in dimethylsulfoxide (DMSO) and sufficient PDE5-containing platelet lysat (10,000×g supernatant, see above) to ensure that 10-20% of the cGMP was converted under the said experimental conditions. […] After a preincubation of 5 min at 37° C., the reaction was commenced by adding the substrate (cGMP) and the assay was incubated for a further 15 min. The reaction was terminated by adding SPA beads (50 μl). In agreement with the manufacturer's instructions, the SPA beads had previously been resuspended in water, but were then diluted 1:3 (v/v) in water. This diluted solution also contained 3 mM 8-methoxymethyl-3-isobutyl-1-methylxanthine (IBMX) to ensure a complete block of PDE activity. Once the beads were sedimented (>30 min), the MTP's were analyzed in commercially available luminescence detection devices. The corresponding IC50 values of the compounds for inhibition of PDE activity were determined from the concentration-effect curves by means of non-linear regression.
as §1

T1 sequence (Q07343 whole entry): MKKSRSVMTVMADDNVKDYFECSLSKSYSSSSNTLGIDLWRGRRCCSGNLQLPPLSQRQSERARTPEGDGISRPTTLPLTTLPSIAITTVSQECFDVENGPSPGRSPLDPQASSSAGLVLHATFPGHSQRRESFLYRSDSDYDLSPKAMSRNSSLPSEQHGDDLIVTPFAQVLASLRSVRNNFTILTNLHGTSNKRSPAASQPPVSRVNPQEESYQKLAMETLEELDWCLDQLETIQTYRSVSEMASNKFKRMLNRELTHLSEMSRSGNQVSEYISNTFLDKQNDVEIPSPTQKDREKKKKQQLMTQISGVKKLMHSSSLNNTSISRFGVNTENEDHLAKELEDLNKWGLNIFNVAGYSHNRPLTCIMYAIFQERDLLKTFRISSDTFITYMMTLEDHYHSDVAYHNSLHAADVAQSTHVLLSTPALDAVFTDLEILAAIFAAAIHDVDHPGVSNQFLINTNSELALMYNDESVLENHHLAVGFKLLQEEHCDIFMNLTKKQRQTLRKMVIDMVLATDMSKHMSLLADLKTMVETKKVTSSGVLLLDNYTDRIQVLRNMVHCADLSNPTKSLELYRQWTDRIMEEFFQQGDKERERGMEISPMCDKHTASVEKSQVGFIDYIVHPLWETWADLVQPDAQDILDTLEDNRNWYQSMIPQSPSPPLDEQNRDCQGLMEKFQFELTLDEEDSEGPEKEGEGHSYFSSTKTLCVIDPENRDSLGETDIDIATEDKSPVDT

| SMILES | IC50 [1] [nM] | IC50 [2] [nM] |
| --- | --- | --- |
| COc1ccc(C2=NN(C3CCN(C(=O)[C@H](CCC(=O)N4CCCC4)NC(=O)c4c[nH]c5c(-c6c(OCC7CC7)ccc7c6OCO7)ncnc45)CC3)C(=O)[C@@H]3CCCC[C@H]23)cc1OC [Example 102, 4-[5-(cyclopropylmethoxy)-1,3-benzodioxol-4-yl]-N-[(2S)-1-{4-[(4aS,8aR)-4-(3,4-dimethoxyphenyl)-1-oxo-4a,5,6,7,8,8a-hexahydrophthalazin-2(1H)-yl]piperidin-1-yl}-1,5-dioxo-5-(pyrrolidin-1-yl)pentan-2-yl]-5H-pyrrolo[3,2-d]pyrimidine-7-carboxamide] | 1 to 10 | 1 to 10 |
| COc1ccc(C2=NN(C3CCN(C(=O)[C@@H](NC(=O)c4c[nH]c5c(-c6c(OCC7CC7)ccc7c6OCO7)ncnc45)[C@@H](C)O)CC3)C(=O)[C@@H]3CCCC[C@H]23)cc1OC [Example 63, 4-[5-(cyclopropylmethoxy)-1,3-benzodioxol-4-yl]-N-[(2S,3R)-1-{4-[(4aS,8aR)-4-(3,4-dimethoxyphenyl)-1-oxo-4a,5,6,7,8,8a-hexahydrophthalazin-2(1H)-yl]piperidin-1-yl}-3-hydroxy-1-oxobutan-2-yl]-5H-pyrrolo[3,2-d]pyrimidine-7-carboxamide] | < 1 | < 1 |
| COc1ccc(C2=NN(C3CCN(C(=O)[C@@H](Cc4ccc(C(N)=O)cc4)NC(=O)c4c(C)[nH]c5c(-c6c(OCC7CC7)ccc7c6OCO7)ncnc45)CC3)C(=O)[C@@H]3CCCC[C@H]23)cc1OC [Example 11, N-[(2R)-3-(4-carbamoylphenyl)-1-{4-[(4aS,8aR)-4-(3,4-dimethoxyphenyl)-1-oxo-4a,5,6,7,8,8a-hexahydrophthalazin-2(1H)-yl]piperidin-1-yl}-1-oxopropan-2-yl]-4-[5-(cyclopropylmethoxy)-1,3-benzodioxol-4-yl]-6-methyl-5H-pyrrolo[3,2-d]pyrimidine-7-carboxamide] | < 1 | 1 to 10 |
| COc1ccc(C2=NN(C3CCN(C(=O)[C@@H](Cc4ccc(C(F)(F)F)cc4)NC(=O)c4c[nH]c5c(-c6c(OCC7CC7)ccc7c6OCO7)ncnc45)CC3)C(=O)[C@@H]3CCCC[C@H]23)cc1OC [Example 49, 4-[5-(cyclopropylmethoxy)-1,3-benzodioxol-4-yl]-N-{(2R)-1-{4-[(4aS,8aR)-4-(3,4-dimethoxyphenyl)-1-oxo-4a,5,6,7,8,8a-hexahydrophthalazin-2(1H)-yl]piperidin-1-yl}-1-oxo-3-[4-(trifluoromethyl)phenyl]propan-2-yl}-5H-pyrrolo[3,2-d]pyrimidine-7-carboxamide] | 1 to 10 | 1 to 10 |

More lines, now with the values ahead:

| IC50 [1] [nM] | IC50 [2] [nM] | SMILES |
| --- | --- | --- |
| 1 to 10 | 1 to 10 | COc1ccc(C2=NN(C3CCN(C(=O)[C@H](Cc4cccc(C)c4)NC(=O)c4c(C)[nH]c5c(-c6c(OCC7CC7)ccc7c6OCO7)ncnc45)CC3)C(=O)[C@@H]3CCCC[C@H]23)cc1OC [Example 4, 4-[5-(cyclopropylmethoxy)-1,3-benzodioxol-4-yl]-N-[(2S)-1-{4-[(4aS,8aR)-4-(3,4-dimethoxyphenyl)-1-oxo-4a,5,6,7,8,8a-hexahydrophthalazin-2(1H)-yl]piperidin-1-yl}-3-(3-methylphenyl)-1-oxopropan-2-yl]-6-methyl-5H-pyrrolo[3,2-d]pyrimidine-7-carboxamide] |
| 1 to 10 | < 1 | COc1ccc(C2=NN(C3CCN(C(=O)[C@H](Cc4ccccn4)NC(=O)c4c(C)[nH]c5c(-c6c(OCC7CC7)ccc7c6OCO7)ncnc45)CC3)C(=O)[C@@H]3CCCC[C@H]23)cc1OC [Example 38, 4-[5-(cyclopropylmethoxy)-1,3-benzodioxol-4-yl]-N-[(2S)-1-{4-[(4aS,8aR)-4-(3,4-dimethoxyphenyl)-1-oxo-4a,5,6,7,8,8a-hexahydrophthalazin-2(1H)-yl]piperidin-1-yl}-1-oxo-3-(pyridin-2-yl)propan-2-yl]-6-methyl-5H-pyrrolo[3,2-d]pyrimidine-7-carboxamide] |
| < 1 | < 1 | CCOc1ccc(C[C@@H](NC(=O)c2c(C)[nH]c3c(-c4c(OCC5CC5)ccc5c4OCO5)ncnc23)C(=O)N2CCC(N3N=C(c4ccc(OC)c(OC)c4)[C@H]4CCCC[C@H]4C3=O)CC2)cc1 [Example 10, 4-[5-(cyclopropylmethoxy)-1,3-benzodioxol-4-yl]-N-[(2R)-1-{4-[(4aS,8aR)-4-(3,4-dimethoxyphenyl)-1-oxo-4a,5,6,7,8,8a-hexahydrophthalazin-2(1H)-yl]piperidin-1-yl}-3-(4-ethoxyphenyl)-1-oxopropan-2-yl]-6-methyl-5H-pyrrolo[3,2-d]pyrimidine-7-carboxamide] |
| < 1 | < 1 | COc1ccc(C2=NN(C3CCN(C(=O)[C@@H](Cc4ccc(N5CCC5=O)cc4)NC(=O)c4c[nH]c5c(-c6c(OCC7CC7)ccc7c6OCO7)ncnc45)CC3)C(=O)[C@@H]3CCCC[C@H]23)cc1OC [Example 112, 4-[5-(cyclopropylmethoxy)-1,3-benzodioxol-4-yl]-N-{(2R)-1-{4-[(4aS,8aR)-4-(3,4-dimethoxyphenyl)-1-oxo-4a,5,6,7,8,8a-hexahydrophthalazin-2(1H)-yl]piperidin-1-yl}-1-oxo-3-[4-(2-oxoazetidin-1-yl)phenyl]propan-2-yl}-5H-pyrrolo[3,2-d]pyrimidine-7-carboxamide] |
| 1 to 10 | 1 to 10 | COc1ccc(C2=NN(C3CCN(C(=O)[C@@H](Cc4ccccc4)NC(=O)c4c(C)[nH]c5c(-c6c(OCC7CC7)ccc7c6OCO7)ncnc45)CC3)C(=O)C3(CCCC3)C2)cc1OC [Example 124, 4-[5-(cyclopropylmethoxy)-1,3-benzodioxol-4-yl]-N-[(2R)-1-{4-[9-(3,4-dimethoxyphenyl)-6-oxo-7,8-diazaspiro[4.5]dec-8-en-7-yl]piperidin-1-yl}-1-oxo-3-phenylpropan-2-yl]-6-methyl-5H-pyrrolo[3,2-d]pyrimidine-7-carboxamide] |
